Assay results reported in patent US6750253B1, “Aminobenzophenones as inhibitors of il-1β and tnf-α” (Leo Pharmaceutical Products Ltd. A/S, priority 1999, dated 2004).

System: IL-1β
Experiment: Inhibition of IL-1β secretion in LPS stimulated peripheral blood mononuclear cells
Assay type: cell-based
Details: PBMC; LPS stimulated human peripheral blood mononuclear cells, 18 hours, ELISA; read-out: The median inhibition concentration (IC50, nM) of IL-1β
Experimental: (§1) To study the effect of the compound of the present invention in vitro the inhibition of the IL-1β and TNF-α secretion was measured using the following procedure:
(§2) Cytokine production was measured in the media from lipopolysaccharide (LPS) stimulated peripheral blood mononuclear cells. The mononuclear cells were isolated from human. peripheral blood by Lymphoprep® (Nycomed, Norway) fractionation and suspended in RPMI 1640 (growth medium) with foetal calv serum (FCS, 2%), at a concentration of 5×10^5 cells/ml. The cells were incubated in 24-well tissue culture plates in 1 ml aliquots. Test compounds were dissolved in dimethylsulfoxide (DMSO, 10 mM) and were diluted with the medium. Compounds were added to the cells for 30 minutes, then LPS ([…] final concentration) was added. The plates were incubated for 18 hours, and the concentration of IL-1β and TNF-α in the medium was determined by enzyme-linked immunosorbent assays. The median inhibitory concentrations (IC50) of the compounds were calculated.

Row | IC50 [nM] | SMILES
1 | 13 | Cc1ccccc1C(=O)c1ccc(Nc2ccccc2NC(=O)NC2CCCCC2)cc1Cl [Compound 101, 1-Cyclohexyl-3-[2-[3-chloro-4-(2-methylbenzoyl)-phenylamino]phenyl]urea]
2 | > 1000 | CCNC(=O)Nc1ccccc1Nc1ccc(C(=O)c2ccccc2)cc1 [ref. b), 1-Ethyl-3-[2-(4-benzoyl-phenylamino)phenyl]urea, reference compound]
3 | 22 | CCNC(=O)Nc1ccccc1Nc1ccc(C(=O)c2ccccc2C)c(Cl)c1 [Compound 102, 1-Ethyl-3-[2-[3-chloro-4-(2-methylbenzoyl)-phenylamino]phenyl]urea]
4 | 7.9 | CCNC(=O)Nc1cc(F)ccc1Nc1ccc(C(=O)c2ccccc2C)c(Cl)c1 [Compound 114, 1-Ethyl-3-[2-[3-chloro-4-(2-methylbenzoyl)-phenylamino]-5-fluoro-phenyl]urea]

System: TNF-α
Experiment: Inhibition of TNF-α secretion in LPS stimulated peripheral blood mononuclear cells
Assay type: cell-based
Details: PBMC; LPS stimulated human peripheral blood mononuclear cells, 18 hours, ELISA; read-out: The median inhibition concentration (IC50, nM) of TNF-α
Experimental: as §1, §2

Row | IC50 [nM] | SMILES
5 | 5 | Cc1ccccc1C(=O)c1ccc(Nc2ccccc2NC(=O)NC2CCCCC2)cc1Cl [Compound 101, 1-Cyclohexyl-3-[2-[3-chloro-4-(2-methylbenzoyl)-phenylamino]phenyl]urea]
6 | 631 | CCNC(=O)Nc1ccccc1Nc1ccc(C(=O)c2ccccc2)cc1 [ref. b), 1-Ethyl-3-[2-(4-benzoyl-phenylamino)phenyl]urea, reference compound]
7 | 2.2 | CCNC(=O)Nc1ccccc1Nc1ccc(C(=O)c2ccccc2C)c(Cl)c1 [Compound 102, 1-Ethyl-3-[2-[3-chloro-4-(2-methylbenzoyl)-phenylamino]phenyl]urea]
8 | 3.2 | CCNC(=O)Nc1cc(F)ccc1Nc1ccc(C(=O)c2ccccc2C)c(Cl)c1 [Compound 114, 1-Ethyl-3-[2-[3-chloro-4-(2-methylbenzoyl)-phenylamino]-5-fluoro-phenyl]urea]

System: PMN-superoxide
Experiment: Inhibition of PMN superoxide secretion (ferricytochrome C reduction)
Assay type: cell-based
Details: human PMN granulocytes primed with TNF-α, stimulated with fMLP; read-out: The median inhibition concentration (IC50, nM) of PMN-superoxide
Experimental: The compounds of the present invention also show similar activities in the ability to inhibit PMN (polymorphonuclear) superoxide secretion which is also indicative of potentially useful anti-inflammatory drugs The compounds were tested using the following procedure:
Human polymorphonuclear (PMN) granulocytes were Isolated from human blood by dextran sedimentation, Lymphoprep® fractionation and hypotonic lysis of contaminating erythrocytes.
Superoxide anion generation was measured as the superoxide dismutase inhibitable reduction of ferricytochrome C (Madhu, S. B. et al, Inflammation, 16 241, (1992)). The cells were suspended in Hanks' balanced salt solution, and incubated for 10 minutes at 37° C. with test compounds. The cells were primed by the addition of TNF-α (3 ng/ml final concentration) for 10 minutes, and then ferricytochrome C, (final concentration 750 μg/ml), bovine serum albumin (BSA, final concentration 1 mg/ml) and formyl-methionyl-leucyl-phenylalanine (fMLP, final concentration 10^−7 M) were added for 3 minutes. The cells were chilled on ice, and were spun down. The optical densities in the cell-free supernatant was measured in a spectrophotometer. The median Inhibitory concentration (IC50) of the compounds was calculated.

Row | IC50 [nM] | SMILES
9 | 4 | Cc1ccccc1C(=O)c1ccc(Nc2ccccc2NC(=O)NC2CCCCC2)cc1Cl [Compound 101, 1-Cyclohexyl-3-[2-[3-chloro-4-(2-methylbenzoyl)-phenylamino]phenyl]urea]
10 | 316 | CCNC(=O)Nc1ccccc1Nc1ccc(C(=O)c2ccccc2)cc1 [ref. b), 1-Ethyl-3-[2-(4-benzoyl-phenylamino)phenyl]urea, reference compound]
11 | 13 | CCNC(=O)Nc1ccccc1Nc1ccc(C(=O)c2ccccc2C)c(Cl)c1 [Compound 102, 1-Ethyl-3-[2-[3-chloro-4-(2-methylbenzoyl)-phenylamino]phenyl]urea]
12 | 4 | CCNC(=O)Nc1cc(F)ccc1Nc1ccc(C(=O)c2ccccc2C)c(Cl)c1 [Compound 114, 1-Ethyl-3-[2-[3-chloro-4-(2-methylbenzoyl)-phenylamino]-5-fluoro-phenyl]urea]
